Results as given in US12138274B2, “Compositions and methods for the treatment of peripheral artery disease and cardiopulmonary diseases” (BOARD OF REGENTS OF THE UNIVERSITY OF NEBRASKA, priority 2018, dated 2024).

Legend:
Type in all cases: in vivo, rat
[1] = test system: Interferon Regulatory Factor 8 (IRF8); test: IRF8 protein expression in T1-T4 DRGs and stellate ganglia after bleomycin lung injury; conditions: 4-weeks post-bleomycin rats
[2] = test system: vagotomized rats; test: Pressor and sympatho-excitatory response to topical bradykinin in bleomycin-treated rats; conditions: BK 10 μg/ml; 4 weeks after bleomycin, compared to sham
Description: For measuring vitals of the rats, a Millar catheter (SPR 524; size, 3.5-Fr; Millar Instruments, Houston, TX) was advanced through the right common carotid artery and progressed into the aorta and left in place to record arterial pressure (AP), mean arterial pressure (MAP), and heart rate (HR), using PowerLab (Model 16S) and LabChart software (version 7.0) (ADInstruments, Colorado Springs, CO). Renal sympathetic nerve activity (RSNA) and integrated RSNA (iRSNA) were also measured. RSNA was recorded as described (Gao, et al. (2005) Hypertension 45:1173-1181; Wang, et al. (2010) J. Appl. Physiol., 108:1365-1375; Becker, et al. (2016) J. Physiol., 594:5711-5725). In brief, the left kidney, renal artery, and nerves were exposed through a left retroperitoneal flank incision. Sympathetic nerves running on or beside the renal artery were identified. The renal sympathetic nerves were placed on a pair of platinum-iridium recording electrodes and cut distally to avoid recording afferent activity. Nerve activity was amplified ([…]) and filtered (bandwidth: 100 to 3000 Hz) using a Grass P55C preamplifier. […] At the end of the experiment, the rat was euthanized with an overdose of pentobarbital sodium. Respective noise levels were subtracted from the nerve recording data before percent changes from baseline were calculated. […]

[3] = test system: rats; test: Premature ventricle contractions after intra-tracheal bleomycin; conditions: single intra-tracheal delivery 2.5 mg/kg
Text: Bleomycin induces experimental lung fibrosis in a variety of animal models and it causes inflammatory and fibrotic reactions within a short period of time, even more so after intratracheal instillation.

For bleomycin, the “IRF8 protein expression in T1-T4 DRGs and stellate ganglia (FIG. 12)” value [1] was “increases”, the “pressor and sympatho-excitatory response to topical BK (FIG. 13)” value [2] was “exaggerated pressor and sympatho-excitatory response” and the “premature ventricle contractions (PVC) (FIG. 14)” value [3] was “dramatic increase”.
